# Measurements published in patent US20100016367A1, “BIS-PYRINIDIUM COMPOUNDS” (priority 2006, published 2010).
# Key:
# Test in all cases: In-vitro activity against dermatophytes, MIC
# Type in all cases: cell-based
# [1] = test system: Trichophyton mentagrophytes; conditions: 18 isolates
# [2] = test system: Trichophyton rubrum; conditions: 20 isolates
# [3] = test system: Microsporum cookie; conditions: 2 isolates
# [4] = test system: Epidermophyton floccosum; conditions: 5 isolates
# [5] = test system: Trichophyton tonsurans; conditions: 16 isolates
# [6] = test system: Trichophyton violaceum; conditions: 3 isolates
# [7] = test system: Trichophyton soudanense; conditions: 3 isolates
# [8] = test system: Microsporum canis; conditions: 5 isolates
# [9] = test system: Microsporum gypseum; conditions: 5 isolates
compound,measurement,setting,value
"CCC(C)n1ncn(-c2ccc(N3CCN(c4ccc(OCC5COC(Cn6cncn6)(c6ccc(Cl)cc6Cl)O5)cc4)CC3)cc2)c1=O (stereo not drawn) [ITC, Itraconazole]","MIC Range, Trichophyton mentagrophytes",[1],0.125 to 4 µg/mL
same,MIC50,[1]; Trichophyton mentagrophytes,2 µg/mL
same,MIC90,[1]; Trichophyton mentagrophytes,4 µg/mL
same,MIC,"[1]; Trichophyton mentagrophytes, read-out: MIC GM, Trichophyton mentagrophytes",1.68 µg/mL
same,"MIC Range, Trichophyton rubrum",[2],0.25 to 4 µg/mL
same,MIC50,"[2]; Trichophyton rubrum, MIC at which 50% of the isolates were inhibited",2 µg/mL
same,MIC90,"[2]; Trichophyton rubrum, MIC at which 90% of the isolates were inhibited",4 µg/mL
same,MIC,"[2]; Trichophyton rubrum, read-out: MIC GM (geometric mean of the MICs), Trichophyton rubrum",1.96 µg/mL
same,"MIC Range, Microsporum cookie",[3],4 to 8 µg/mL
same,MIC,"[3]; Microsporum, read-out: MIC GM, Microsporum cookie",6 µg/mL
same,"MIC Range, Epidermophyton floccosum",[4],0.063 to 0.5 µg/mL
same,MIC,"[4]; Epidermophyton floccosum, read-out: MIC GM, Epidermophyton floccosum",0.226 µg/mL
same,"MIC Range, Trichophyton tonsurans",[5],0.25 to 4 µg/mL
same,MIC50,[5]; Trichophyton tonsurans,2 µg/mL
same,MIC90,[5]; Trichophyton tonsurans,4 µg/mL
same,MIC,"[5]; Trichophyton tonsurans, read-out: MIC GM, Trichophyton tonsurans",1.65 µg/mL
same,"MIC Range, Trichophyton violaceum",[6],2 to 8 µg/mL
same,MIC,"[6]; Trichophyton violaceum, read-out: MIC GM, Trichophyton violaceum",3.3 µg/mL
same,"MIC Range, Trichophyton soudanense",[7],1 to 4 µg/mL
same,MIC,"[7]; Trichophyton soudanense, read-out: MIC GM, Trichophyton soudanense",3.42 µg/mL
same,"MIC Range, Microsporum canis",[8],0.25 to 8 µg/mL
same,MIC,"[8]; Microsporum canis, read-out: MIC GM, Microsporum canis",1.23 µg/mL
same,"MIC Range, Microsporum gypseum",[9],1 to 8 µg/mL
same,MIC,"[9]; Nannizzia gypsea, read-out: MIC GM, Microsporum gypseum",3.68 µg/mL
